Assay type in all cases: cell-based
One assay addresses T1, human TLR8 (Homo sapiens, UniProt Q9NR97).
T1 construct: host or cells: HEK-Blue cells (HEK293-derived reporter line)
T1 sequence (Q9NR97 27-1041): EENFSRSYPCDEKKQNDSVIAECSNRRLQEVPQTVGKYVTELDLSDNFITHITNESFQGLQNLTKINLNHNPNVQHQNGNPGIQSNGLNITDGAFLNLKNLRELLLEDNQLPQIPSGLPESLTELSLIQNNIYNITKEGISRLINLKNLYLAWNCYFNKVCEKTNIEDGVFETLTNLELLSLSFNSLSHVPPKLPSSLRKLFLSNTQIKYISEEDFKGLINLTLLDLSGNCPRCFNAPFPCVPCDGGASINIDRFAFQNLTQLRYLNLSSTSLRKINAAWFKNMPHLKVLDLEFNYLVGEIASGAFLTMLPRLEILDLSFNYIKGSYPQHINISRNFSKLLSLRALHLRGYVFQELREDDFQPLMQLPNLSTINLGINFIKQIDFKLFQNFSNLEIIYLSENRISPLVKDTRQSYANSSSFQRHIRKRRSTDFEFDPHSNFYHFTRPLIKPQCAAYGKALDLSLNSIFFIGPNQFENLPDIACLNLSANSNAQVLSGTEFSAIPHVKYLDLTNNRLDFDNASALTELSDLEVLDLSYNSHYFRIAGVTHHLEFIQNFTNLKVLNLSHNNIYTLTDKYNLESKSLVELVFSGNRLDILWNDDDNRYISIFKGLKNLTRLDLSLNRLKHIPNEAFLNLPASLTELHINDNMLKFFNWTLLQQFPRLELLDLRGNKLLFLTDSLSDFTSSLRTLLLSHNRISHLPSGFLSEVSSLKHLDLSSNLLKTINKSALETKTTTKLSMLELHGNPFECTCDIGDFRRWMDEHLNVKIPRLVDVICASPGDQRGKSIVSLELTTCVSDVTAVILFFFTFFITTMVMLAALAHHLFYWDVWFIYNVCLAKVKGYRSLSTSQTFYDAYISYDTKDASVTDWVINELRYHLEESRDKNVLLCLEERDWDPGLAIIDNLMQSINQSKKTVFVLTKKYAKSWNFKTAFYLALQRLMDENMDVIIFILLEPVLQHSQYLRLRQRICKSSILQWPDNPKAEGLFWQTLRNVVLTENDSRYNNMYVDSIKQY
Description: TLR8 inhibition reporter assay (HEK-Blue cells, SEAP reporter, R848 stimulation). The settings on record: HEK-Blue cells overexpressing human TLR8, SEAP reporter, R848 15.9 μM. The procedure, abridged:
(§1)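 Percent inhibition of agonist-induced SEAP secretion in HEK-Blue cells after 22 h at 37 °C. Stimuli: 7.5 μM gardiquimod, 15.9 μM R848, 5 nM ODN2006 for TLR7, TLR8 and TLR9, added after 30 min compound exposure over a 0.05 nM–50 μM range.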

The next assay has as its target T2, human TLR7 (Homo sapiens, UniProt Q9NYK1).
T2 construct: host or cells: HEK-Blue cells (HEK293-derived reporter line)
T2 sequence (Q9NYK1 27-1049): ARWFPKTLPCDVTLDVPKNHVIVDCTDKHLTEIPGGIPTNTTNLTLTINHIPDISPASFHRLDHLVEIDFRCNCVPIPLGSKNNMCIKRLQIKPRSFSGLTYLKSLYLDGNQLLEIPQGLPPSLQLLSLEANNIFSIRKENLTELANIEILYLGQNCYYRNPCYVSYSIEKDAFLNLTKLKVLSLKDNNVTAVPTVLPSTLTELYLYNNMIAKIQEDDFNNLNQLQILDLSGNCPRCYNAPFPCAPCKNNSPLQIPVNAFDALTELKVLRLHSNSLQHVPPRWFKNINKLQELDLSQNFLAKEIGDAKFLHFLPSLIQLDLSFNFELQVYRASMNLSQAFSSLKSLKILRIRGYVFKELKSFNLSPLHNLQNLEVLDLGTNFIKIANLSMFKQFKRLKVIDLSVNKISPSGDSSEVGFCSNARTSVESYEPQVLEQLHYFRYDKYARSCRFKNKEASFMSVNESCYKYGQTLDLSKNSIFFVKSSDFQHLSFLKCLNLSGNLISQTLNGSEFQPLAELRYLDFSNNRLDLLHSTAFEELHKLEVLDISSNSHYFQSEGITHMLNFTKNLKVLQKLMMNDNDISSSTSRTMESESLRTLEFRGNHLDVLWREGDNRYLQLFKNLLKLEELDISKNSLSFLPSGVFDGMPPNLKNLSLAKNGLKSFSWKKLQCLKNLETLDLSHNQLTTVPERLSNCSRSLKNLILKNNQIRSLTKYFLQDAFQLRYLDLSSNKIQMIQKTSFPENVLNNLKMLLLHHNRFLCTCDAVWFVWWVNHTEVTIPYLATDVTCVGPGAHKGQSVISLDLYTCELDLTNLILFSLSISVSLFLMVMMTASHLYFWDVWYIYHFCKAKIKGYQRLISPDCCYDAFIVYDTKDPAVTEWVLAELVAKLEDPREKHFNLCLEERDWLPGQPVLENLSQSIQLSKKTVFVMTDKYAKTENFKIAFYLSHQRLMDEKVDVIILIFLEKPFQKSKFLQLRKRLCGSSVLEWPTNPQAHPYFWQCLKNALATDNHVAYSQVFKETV
Description: TLR7 inhibition reporter assay (HEK-Blue cells, SEAP reporter, gardiquimod stimulation). The note with it: HEK-Blue cells overexpressing human TLR7, SEAP reporter, gardiquimod 7.5 μM. The procedure, abridged:
as §1
For orientation: A reporter such as luciferase makes a cellular process visible.

The target in the next assay is T3, human TLR9 (Homo sapiens, UniProt Q9NR96).
T3 construct: host or cells: HEK-Blue cells (HEK293-derived reporter line)
T3 sequence (Q9NR96 26-1032): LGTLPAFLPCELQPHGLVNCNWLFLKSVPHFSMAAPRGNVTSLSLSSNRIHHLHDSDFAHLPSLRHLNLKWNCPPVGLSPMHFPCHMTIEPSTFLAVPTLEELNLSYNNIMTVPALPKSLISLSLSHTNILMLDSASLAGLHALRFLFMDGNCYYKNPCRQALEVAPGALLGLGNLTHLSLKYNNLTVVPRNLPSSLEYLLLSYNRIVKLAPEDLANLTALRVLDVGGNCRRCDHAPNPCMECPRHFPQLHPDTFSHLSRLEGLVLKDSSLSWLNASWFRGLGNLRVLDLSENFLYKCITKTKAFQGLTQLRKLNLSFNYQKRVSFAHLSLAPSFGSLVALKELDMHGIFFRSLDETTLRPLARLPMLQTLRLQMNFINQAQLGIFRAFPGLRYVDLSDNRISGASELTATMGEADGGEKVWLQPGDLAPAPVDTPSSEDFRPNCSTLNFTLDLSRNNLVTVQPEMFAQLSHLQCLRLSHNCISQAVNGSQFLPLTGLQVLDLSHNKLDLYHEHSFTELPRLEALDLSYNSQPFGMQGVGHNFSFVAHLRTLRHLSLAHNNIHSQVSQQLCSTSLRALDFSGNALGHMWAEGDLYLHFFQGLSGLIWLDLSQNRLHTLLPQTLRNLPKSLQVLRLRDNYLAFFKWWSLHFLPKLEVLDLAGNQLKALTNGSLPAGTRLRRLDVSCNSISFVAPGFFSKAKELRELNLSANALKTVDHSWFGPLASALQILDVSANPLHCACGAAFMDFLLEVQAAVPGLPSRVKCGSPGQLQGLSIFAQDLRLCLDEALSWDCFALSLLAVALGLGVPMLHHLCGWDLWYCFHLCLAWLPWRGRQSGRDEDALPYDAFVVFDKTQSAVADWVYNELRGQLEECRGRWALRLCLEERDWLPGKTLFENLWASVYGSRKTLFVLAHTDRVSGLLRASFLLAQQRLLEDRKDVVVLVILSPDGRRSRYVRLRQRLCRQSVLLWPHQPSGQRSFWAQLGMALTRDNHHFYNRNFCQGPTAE
Kind of assay: TLR9 inhibition reporter assay (HEK-Blue cells, SEAP reporter, ODN2006 stimulation). The settings on record: HEK-Blue cells overexpressing human TLR9, SEAP reporter, ODN2006 5 nM. In a few lines:
as §1

As usually defined, the IC50 is the concentration that inhibits the measured activity by half.

In the case of `Cc1cc(-c2[nH]c3ccc(C4CCN(C(=O)CN(C)C)CC4)cc3c2C(C)C)c(C)n2nnnc12` [Example 469, 2-(dimethylamino)-1-(4-(2-(5,8-dimethyltetrazolo[1,5-a]pyridin-6-yl)-3-isopropyl-1H-indol-5-yl)piperidin-1-yl)ethan-1-one], the IC50 at human TLR8 was less than 100 nM; against human TLR7, less than 100 nM; at human TLR9, 1 to 50 µM.

As to `Cc1cc(-c2[nH]c3ccc(C4CCN(C(=O)CN5CCCC5)CC4)cc3c2C(C)C)cn2nnnc12` [Example 470, 1-(4-(3-isopropyl-2-(8-methyltetrazolo[1,5-a]pyridin-6-yl)-1H-indol-5-yl)piperidin-1-yl)-2-(pyrrolidin-1-yl) ethan-1-one], the IC50 against human TLR8 is less than 100 nM; at human TLR7, less than 100 nM; against human TLR9, 1 to 50 µM.

For the molecule `Cc1cc(-c2[nH]c3ccc(C4CCN(C(=O)CN5CC6(COC6)C5)CC4)cc3c2C(C)C)cn2nnnc12` [Example 471, 1-(4-(3-isopropyl-2-(8-methyltetrazolo[1,5-a]pyridin-6-yl)-1H-indol-5-yl)piperidin-1-yl)-2-(2-oxa-6-azaspiro[3.3]heptan-6-yl)ethan-1-one], the results for the half-maximal inhibitory concentration (IC50) at human TLR8, against human TLR7 and against human TLR9 were less than 100 nM, less than 100 nM and 1 to 50 µM, respectively.

In the case of `Cc1cc(-c2[nH]c3ccc(C4CCN(C(=O)CN5CCCCC5)CC4)cc3c2C(C)C)cn2nnnc12` [Example 472, 1-(4-(3-isopropyl-2-(8-methyltetrazolo[1,5-a]pyridin-6-yl)-1H-indol-5-yl)piperidin-1-yl)-2-(piperidin-1-yl)ethan-1-one], the figures for the IC50 at human TLR8, on human TLR7 and on human TLR9 were less than 100 nM, less than 100 nM and 1 to 50 µM, respectively.

Turning to `Cc1cc(-c2[nH]c3ccc(C4CCN(C(=O)CN5CC(C)(C)OC(C)(C)C5)CC4)cc3c2C(C)C)cn2nnnc12` [Example 473, 1-(4-(3-isopropyl-2-(8-methyltetrazolo[1,5-a]pyridin-6-yl)-1H-indol-5-yl)piperidin-1-yl)-2-(2,2,6,6-tetramethylmorpholino)ethan-1-one], the IC50 at human TLR8 is 100 to 1000 nM; on human TLR7, less than 100 nM; at human TLR9, greater than 50 µM.

Regarding `Cc1cc(-c2[nH]c3ccc(C4CCN(C(=O)CN5CCC(F)CC5)CC4)cc3c2C(C)C)cn2nnnc12` [Example 474, 2-(4-fluoropiperidin-1-yl)-1-(4-(3-isopropyl-2-(8-methyltetrazolo[1,5-a]pyridin-6-yl)-1H-indol-5-yl)piperidin-1-yl) ethan-1-one], the IC50 is less than 100 nM on human TLR8, less than 100 nM against human TLR7 and 1 to 50 µM on human TLR9.

Take `CCN(C)CC(=O)N1CCC(c2ccc3[nH]c(-c4cc(C)c5nnnn5c4)c(C(C)C)c3c2)CC1` [Example 475, 2-(ethyl(methyl)amino)-1-(4-(3-isopropyl-2-(8-methyltetrazolo[1,5-a]pyridin-6-yl)-1H-indol-5-yl)piperidin-1-yl)ethan-1-one]: the IC50 against human TLR8 was less than 100 nM; against human TLR7, less than 100 nM; against human TLR9, 1 to 50 µM.

For `Cc1cc(-c2[nH]c3ccc(C4CCN(C(=O)CN5CCOCC5)CC4)cc3c2C(C)C)cn2nnnc12` [Example 476, 1-(4-(3-isopropyl-2-(8-methyltetrazolo[1,5-a]pyridin-6-yl)-1H-indol-5-yl)piperidin-1-yl)-2-morpholinoethan-1-one], the IC50 was less than 100 nM at human TLR8, less than 100 nM against human TLR7 and 1 to 50 µM against human TLR9.

`Cc1cc(-c2[nH]c3ccc(C4CCN(C(=O)CN(C)C)CC4)cc3c2C(C)C)cn2nnnc12` [Example 477, 2-(dimethylamino)-1-(4-(3-isopropyl-2-(8-methyltetrazolo[1,5-a]pyridin-6-yl)-1H-indol-5-yl)piperidin-1-yl)ethan-1-one]: the IC50 against human TLR8 was less than 100 nM; against human TLR7, less than 100 nM; at human TLR9, 1 to 50 µM.

With `Cc1cc(-c2[nH]c3ccc(C4CCN(C(=O)CN5CCC(F)(F)C5)CC4)cc3c2C(C)C)cn2nnnc12` [Example 478, 2-(3,3-difluoropyrrolidin-1-yl)-1-(4-(3-isopropyl-2-(8-methyltetrazolo[1,5-a]pyridin-6-yl)-1H-indol-5-yl)piperidin-1-yl)ethan-1-one], the IC50 against human TLR8 was 100 to 1000 nM; against human TLR7, less than 100 nM; against human TLR9, greater than 50 µM.

As to `Cc1cc(-c2[nH]c3ccc(C4CCN(C(=O)CN5[C@@H]6CC[C@H]5COC6)CC4)cc3c2C(C)C)cn2nnnc12` [Example 479, 2-((1R,5S)-3-oxa-8-azabicyclo[3.2.1]octan-8-yl)-1-(4-(3-isopropyl-2-(8-methyltetrazolo[1,5-a]pyridin-6-yl)-1H-indol-5-yl)piperidin-1-yl)ethan-1-one], the IC50 at human TLR8 was less than 100 nM; against human TLR7 it was less than 100 nM; on human TLR9, 1 to 50 µM.

These data come from patent US11739098B2 (BRISTOL-MYERS SQUIBB COMPANY, priority 2017, dated 2023).
